Here are results for 24 compounds from patent publication US20240124451A1, “PHTHALAZINE DERIVATIVES USEFUL AS INHIBITORS OF NOD-LIKE RECEPTOR PROTEIN 3” (Merck Sharp & Dohme LLC, priority 2022, published 2024).

T1 sequence (Q96P20 whole entry): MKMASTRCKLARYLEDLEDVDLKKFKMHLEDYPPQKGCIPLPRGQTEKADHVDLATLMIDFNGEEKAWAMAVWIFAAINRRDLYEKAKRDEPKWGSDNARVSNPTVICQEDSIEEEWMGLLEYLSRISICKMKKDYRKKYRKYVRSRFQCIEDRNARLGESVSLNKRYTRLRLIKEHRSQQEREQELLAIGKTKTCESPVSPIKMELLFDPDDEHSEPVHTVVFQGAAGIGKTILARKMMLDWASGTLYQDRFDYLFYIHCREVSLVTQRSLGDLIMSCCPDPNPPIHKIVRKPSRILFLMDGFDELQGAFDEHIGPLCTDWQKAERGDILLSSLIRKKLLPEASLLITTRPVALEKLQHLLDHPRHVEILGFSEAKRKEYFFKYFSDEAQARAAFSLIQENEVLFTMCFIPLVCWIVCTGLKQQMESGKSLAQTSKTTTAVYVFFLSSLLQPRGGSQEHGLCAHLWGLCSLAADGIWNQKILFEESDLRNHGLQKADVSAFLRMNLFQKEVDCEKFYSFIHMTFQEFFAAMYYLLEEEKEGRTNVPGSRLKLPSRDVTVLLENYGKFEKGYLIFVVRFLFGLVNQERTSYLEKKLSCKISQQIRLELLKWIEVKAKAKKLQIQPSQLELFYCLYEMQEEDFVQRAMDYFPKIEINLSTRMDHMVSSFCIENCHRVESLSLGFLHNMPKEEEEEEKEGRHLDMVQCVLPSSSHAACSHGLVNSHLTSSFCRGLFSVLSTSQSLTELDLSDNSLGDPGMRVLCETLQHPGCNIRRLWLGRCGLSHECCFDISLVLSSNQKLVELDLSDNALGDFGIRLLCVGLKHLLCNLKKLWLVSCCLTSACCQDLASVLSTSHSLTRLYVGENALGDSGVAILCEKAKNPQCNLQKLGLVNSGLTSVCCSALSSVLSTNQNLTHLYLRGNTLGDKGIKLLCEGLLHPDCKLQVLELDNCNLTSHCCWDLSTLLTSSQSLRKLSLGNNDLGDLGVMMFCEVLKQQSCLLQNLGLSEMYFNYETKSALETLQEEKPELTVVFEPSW

The assay concerns the target T1, NLRP3 inflammasome (Homo sapiens, UniProt Q96P20).
T1 construct: host or cells: THP-1 human monocytic cells, PMA-treated, stimulated with gramicidin
In words: ASC-SPECK formation in THP-1 cells after gramicidin stimulation (NLRP3 inflammasome activation). The class given is cell-based. As to conditions: PMA-treated human monocytic THP-1 cells, compound 1 h before 12.5 ug/ml gramicidin, 3 h, ASC SPECK imaging; read-out: EC50 (nM) for Examples that inhibit NLRP3 inflammasome activation. As to the method: The ability of compounds to inhibit NLRP3 inflammasome activation was determined in vitro by monitoring formation of the ASC-SPECK in human monocytic THP-1 cells after stimulation. THP-1 cells (ATCC catalog #TIB-202) were maintained in complete growth media containing Roswell Park Memorial Institute RPMI (ATCC catalog #30-2001), 10% heat inactivated fetal bovine serum, 1× penicillin/streptomycin and 0.05 mM 2-mercaptoethanol. At the start of the assay, undifferentiated THP-1 cells were plated at a density of 20,000 cells per well in a 384-well plate (Poly-D-lysine coated Cell Carrier Ultra microplate, Perkin Elmer catalog #6057500) in complete growth media supplemented with 10 ng/ml phorbol 12-myristate 13-acetate (PMA; Sigma catalog #P8139), and then incubated overnight. The next day, media was replaced with assay media [RPMI (Gibco catalog #11875-093), 0.01% bovine serum albumin (BSA)]. Compounds were serially diluted in DMSO and then added to wells one hour prior to the addition of 12.5 ug/ml Gramicidin (Enzo Lifescience, catalog #ALX-350-233-M005). All incubations were carried out at 37° C. (5% CO2/95% air). Following a 3-hour treatment with gramicidin, cells are fixed with 4% paraformaldehyde and stored at 4° C. until immunofluorescence staining.
Immunofluorescence staining: Anti-ASC antibody (MBL catalog #D086-3) was desalted and labeled with Alexa 488 antibody labeling kit (Thermo catalog #A20181) prior to use as described below. After fixation, the following steps were carried out at room temperature. Cells were first permeabilized with 0.3% Triton X-100 in phosphate-buffered saline (PBS) for 15 minutes and then incubated in blocking buffer containing 5% goat serum, 0.3% tween-20 and 0.03% sodium azide in PBS for 1 hour. Cells were stained with a mixture of ASC-Alexa 488 antibody (diluted 1:200 in blocking buffer) and nuclear stain DRAQ5 (1:5000 in blocking buffer, Thermo catalog #62251) in blocking buffer for 1 hour. Following a wash with 0.3% Tween-20 in PBS, plates were imaged with an Opera Phenix High Content Screening System. The number of DRAQ5 positive cells containing ASC SPECKS were quantified in each well.
Data analysis: EC50 values were calculated by standard curve-fitting analysis using an internally developed program in TIBCO Spotfire software.
On to `C[C@@H]1CN(c2nnc(-c3ccc4occc4c3)c3ccncc23)C[C@H](C)O1` [Example 11, (cis)-4-(1-(benzofuran-5-yl)pyrido[3,4-d]pyridazin-4-yl)-2,6-dimethylmorpholine], for which the EC50 was 750 nM.

Regarding `C[C@]1(O)CCN(c2nnc(-c3ccc(C(F)(F)F)cc3O)c3ccc(C(F)(F)F)nc23)C1` [Example 12, (S)-1-(5-(2-hydroxy-4-(trifluoromethyl)phenyl)-2-(trifluoromethyl)pyrido[2,3-d]pyridazin-8-yl)-3-methylpyrrolidin-3-ol], the EC50 stood at 621 nM.

As to `C[C@@H]1CN(c2nnc(-c3ccc(C(F)(F)F)cc3O)c3cnncc23)C[C@H](C)[C@]1(C)O` [Example 13, (3S,4s,5R)-1-(4-(2-hydroxy-4-(trifluoromethyl)phenyl)pyridazino [4,5-d]pyridazin-1-yl)-3,4,5-trimethylpiperidin-4-ol], the EC50 came out at 264 nM.

Take `Cc1cccc2c(-c3ccc(C(F)(F)F)cc3O)nnc(N3C[C@@H](C)O[C@@H](C)C3)c12` [Example 14, 2-(4-((cis)-2,6-dimethylmorpholino)-5-methylphthalazin-1-yl)-5-(trifluoromethyl)phenol]: the EC50 came to 734 nM.

As for `Cc1cccc2c(N3C[C@@H](C)O[C@@H](C)C3)nnc(-c3ccc(C(F)(F)F)cc3O)c12` [Example 15, 2-(4-((cis)-2,6-dimethylmorpholino)-8-methylphthalazin-1-yl)-5-(trifluoromethyl)phenol], the EC50 came to 3680 nM.

`C[C@@H]1CN(c2nnc(-c3ccc(C(F)(F)F)cc3O)c3cnccc23)C[C@H](C)[C@]1(C)O` [Example 17, (3S,4s,5R)-1-(4-(2-hydroxy-4-(trifluoromethyl)phenyl)pyrido[3,4-d]pyridazin-1-yl)-3,4,5-trimethylpiperidin-4-ol]: the EC50 was found to be 201 nM.

Take `C[C@@H]1CN(c2nnc(-c3ccc(C(F)(F)F)cc3O)c3cnccc23)C[C@H](C)[C@H]1O` [Example 19, (3S,4r,5R)-1-(4-(2-hydroxy-4-(trifluoromethyl)phenyl)pyrido[3,4-d]pyridazin-1-yl)-3,5-dimethylpiperidin-4-ol]: the concentration giving a half-maximal response (EC50) worked out at 68 nM.

As for `Cc1ccc2c(N3C[C@@H](C)O[C@@H](C)C3)nnc(-c3ccc(C(F)(F)F)cc3O)c2c1` [Example 21, 2-(4-((cis)-2,6-dimethylmorpholino)-7-methylphthalazin-1-yl)-5-(trifluoromethyl)phenol], the EC50 was 815 nM.

For the compound `C[C@]1(O)CCN(c2nnc(-c3ccc(C(F)(F)F)cc3O)c3cccnc23)C1` [Example 22, (S)-1-(5-(2-hydroxy-4-(trifluoromethyl)phenyl)pyrido[2,3-d]-pyridazin-8-yl)-3-methylpyrrolidin-3-ol], the 50% effective concentration (EC50) was found to be 124 nM.

Take `CN1CC[C@H]2CCN(c3nnc(-c4ccc(C(F)(F)F)cc4O)c4cccnc34)[C@H]2C1` [Example 23, 2-(8-((3aS,7aR)-6-methyloctahydro-1H-pyrrolo[2,3-c]pyridin-1-yl)pyrido[2,3-d]pyridazin-5-yl)-5-(trifluoromethyl)phenol]: the EC50 was 5 nM.

Regarding `C[C@@H]1CN(c2nnc(-c3ccc(C(F)(F)F)cc3O)c3cccnc23)C[C@H](C)[C@]1(C)O` [Example 24, (3S,4s,5R)-1-(5-(2-hydroxy-4-(trifluoromethyl)phenyl)pyrido [2,3-d]pyridazin-8-yl)-3,4,5-trimethylpiperidin-4-ol], the half-maximal effective concentration (EC50) worked out at 52 nM.

Take `O=C1NC2(CCN(c3nnc(-c4ccc(C(F)(F)F)cc4O)c4cccnc34)CC2)CO1` [Example 25, 8-(5-(2-hydroxy-4-(trifluoromethyl)phenyl)pyrido [2,3-d]pyridazin-8-yl)-3-oxa-1,8-diazaspiro[4.5]decan-2-one]: the concentration giving a half-maximal response (EC50) worked out at 148 nM.

Take `C[C@@H]1CN(c2nnc(-c3ccc(C(F)(F)F)cc3O)c3cccnc23)C[C@H](C)S1(=O)=O` [Example 26, (cis)-4-(5-(2-hydroxy-4-(trifluoromethyl)phenyl)pyrido [2,3-d]pyridazin-8-yl)-2,6-dimethylthiomorpholine 1,1-dioxide]: the EC50 turned out to be 96 nM.

`Oc1cc(C(F)(F)F)ccc1-c1nnc(N2CCC3(CCCO3)CC2)c2ncccc12` [Example 30, 2-(8-(1-oxa-8-azaspiro[4.5]decan-8-yl)pyrido[2,3-d]pyridazin-5-yl)-5-(trifluoromethyl)phenol]: the concentration giving a half-maximal response (EC50) was found to be 1270 nM.

On to `Oc1cc(C(F)(F)F)ccc1-c1nnc(N2CCC3(CCOC3)CC2)c2ncccc12` [Example 31, 2-(8-(2-oxa-8-azaspiro[4.5]decan-8-yl)pyrido[2,3-d]pyridazin-5-yl)-5-(trifluoromethyl)phenol], for which the EC50 amounted to 915 nM.

With `O=C1COC2(CCN(c3nnc(-c4ccc(C(F)(F)F)cc4O)c4cccnc34)CC2)CN1` [Example 32, 9-(5-(2-hydroxy-4-(trifluoromethyl)phenyl)pyrido [2,3-d]pyridazin-8-yl)-1-oxa-4,9-diazaspiro[5.5]undecan-3-one], the EC50 is 330 nM.

In the case of `C[C@@H]1CN(c2nnc(-c3ccc(C(F)(F)F)cc3O)c3cccnc23)C[C@H](C)C1(F)F` [Example 33, 2-(8-((cis)-4,4-difluoro-3,5-dimethylpiperidin-1-yl)pyrido[2,3-d]pyridazin-5-yl)-5-(trifluoromethyl)phenol], the concentration for a half-maximal effect (EC50) was 221 nM.

Consider `CC(=O)N1CCCC12CCN(c1nnc(-c3ccc(C(F)(F)F)cc3O)c3cccnc13)CC2` [Example 34, 1-(8-(5-(2-hydroxy-4-(trifluoromethyl)phenyl)pyrido [2,3-d]pyridazin-8-yl)-1,8-diazaspiro[4.5]decan-1-yl)ethan-1-one], for which the EC50 was 1510 nM.

Turning to `CC(=O)N1CCC2(CCN(c3nnc(-c4ccc(C(F)(F)F)cc4O)c4cccnc34)CC2)C1` [Example 35, 1-(8-(5-(2-hydroxy-4-(trifluoromethyl)phenyl)pyrido [2,3-d]pyridazin-8-yl)-2,8-diazaspiro[4.5]decan-2-yl)ethan-1-one], the half-maximal effective concentration (EC50) was found to be 420 nM.

As for `CN1CC2(CCN(c3nnc(-c4ccc(C(F)(F)F)cc4O)c4cccnc34)CC2)OC1=O` [Example 36, 8-(5-(2-hydroxy-4-(trifluoro-methyl)phenyl)pyrido[2,3-d]-pyridazin-8-yl)-3-methyl-1-oxa-3,8-diazaspiro[4.5]decan-2-one], the EC50 turned out to be 742 nM.

As to `CC1(C)CCOC12CCN(c1nnc(-c3ccc(C(F)(F)F)cc3O)c3cccnc13)CC2` [Example 37, 2-(8-(4,4-dimethyl-1-oxa-8-azaspiro[4.5]decan-8-yl)pyrido[2,3-d]pyridazin-5-yl)-5-(trifluoromethyl)phenol], the half-maximal effective concentration (EC50) was 1130 nM.

Consider `CN1C(=O)CCC12CCN(c1nnc(-c3ccc(C(F)(F)F)cc3O)c3cccnc13)CC2` [Example 39, 8-(5-(2-hydroxy-4-(trifluoromethyl)phenyl)pyrido [2,3-d]pyridazin-8-yl)-1-methyl-1,8-diazaspiro[4.5]decan-2-one], for which the half-maximal effective concentration (EC50) came to 563 nM.

As for `O=C1NCC2(CCN(c3nnc(-c4ccc(C(F)(F)F)cc4O)c4cccnc34)CC2)O1` [Example 40, 8-(5-(2-hydroxy-4-(trifluoromethyl)phenyl)pyrido [2,3-d]pyridazin-8-yl)-1-oxa-3,8-diazaspiro[4.5]decan-2-one], the half-maximal effective concentration (EC50) amounted to 304 nM.

In the case of `Oc1cc(C(F)(F)F)ccc1-c1nnc(N2C[C@@H]3[C@H](C2)C3(F)F)c2ncccc12` [Example 41, 2-(8-(6,6-difluoro-3-azabicyclo[3.1.0]hexan-3-yl)pyrido[2,3-d]pyridazin-5-yl)-5-(trifluoromethyl)phenol], the EC50 came to 999 nM.

In general, EC50 refers to the concentration at which the effect is half-maximal.
